# Measurements reported in patent US9034921B2, “Diphenylmethane derivatives as SGLT2 inhibitors” (GREEN CROSS CORPORATION, priority 2011, dated 2015).
# Target: human SGLT2 (Homo sapiens (Human), UniProt P31639)
# Assay: Inhibitory effects on human SGLT2 activities (14C-AMG uptake, sodium-dependent glucose transport assay)
# Format: cell-based
# Details: CHO cells stably expressing hSGLT2, 37° C., 2 h, single determinations
# Description: Test 1: Cloning and Cell Line Construction for Human SGLT2
# Human SGLT2 (hSGLT2) gene was amplified by PCR from cDNA-Human Adult Normal Tissue Kidney (Invitrogen). The hSGLT2 sequence was cloned into pcDNA3.1(+) for mammalian expression and stably transfected into chinese hamster ovary (CHO) cells. SGLT2-expressing clones were selected based on resistance to G418 antibiotic (Geneticin) and activity in the ^14C-α-methyl-D-glucopyranoside (^14C-AMG) uptake assay.
# Test 2: Inhibitory Effects on Human SGLT2 Activities
# For sodium-dependent glucose transport assay, cells expressing hSGLT2 were seeded into a 96-well culture plate at a density of 5×10^4 cells/well in RPMI medium 1640 containing 10% fetal bovine serum. The cells were used 1 day after plating. They were incubated in pretreatment buffer (10 mM HEPES, 5 mM Tris, 140 mM choline chloride, 2 mM KCl, 1 mM CaCl2, and 1 mM MgCl2, pH 7.4) at 37° C. for 10 min. They were then incubated in uptake buffer (10 mM HEPES, 5 mM Tris, 140 mM NaCl, 2 mM KCl, 1 mM CaCl2, 1 mM MgCl2, and 1 mM ^14C-nonlabeled AMG pH 7.4) containing ^14C-labeled AMG (8 μM) and the inventive compound or dimethyl sulfoxide (DMSO) vehicle at 37° C. for 2 h. Cells were washed twice with washing buffer (pretreatment buffer containing 10 mM AMG at room temperature) and then the radioactivity was measured using a liquid scintillation counter. IC50 was determined by nonlinear regression analysis using GraphPad PRISM [Katsuno, K. et al. J. Pharmacol. Exp. Ther. 2007, 320, 323-330; Han, S. et al. Diabetes, 2008, 57, 1723-1729].
# Sequence of human SGLT2 (P31639 whole entry): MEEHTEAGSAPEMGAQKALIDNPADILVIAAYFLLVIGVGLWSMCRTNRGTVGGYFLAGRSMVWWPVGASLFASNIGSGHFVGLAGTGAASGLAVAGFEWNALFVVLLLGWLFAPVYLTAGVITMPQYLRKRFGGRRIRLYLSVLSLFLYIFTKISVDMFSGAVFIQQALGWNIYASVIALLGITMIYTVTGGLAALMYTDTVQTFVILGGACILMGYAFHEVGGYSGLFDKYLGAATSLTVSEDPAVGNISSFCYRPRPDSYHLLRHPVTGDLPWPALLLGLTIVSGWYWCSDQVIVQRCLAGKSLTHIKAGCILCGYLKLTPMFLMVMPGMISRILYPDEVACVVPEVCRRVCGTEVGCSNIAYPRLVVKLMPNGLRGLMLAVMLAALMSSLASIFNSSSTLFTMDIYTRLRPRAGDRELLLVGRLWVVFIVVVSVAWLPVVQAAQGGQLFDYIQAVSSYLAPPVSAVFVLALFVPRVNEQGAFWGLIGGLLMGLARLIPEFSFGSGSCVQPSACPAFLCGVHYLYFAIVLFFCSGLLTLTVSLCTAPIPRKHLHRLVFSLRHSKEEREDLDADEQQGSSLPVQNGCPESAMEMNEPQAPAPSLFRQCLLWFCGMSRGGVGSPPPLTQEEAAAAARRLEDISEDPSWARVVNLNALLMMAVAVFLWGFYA
row,Compound,IC50 [nM]
1,"OC[C@H]1O[C@@H](c2ccc(Cl)c(Cc3ccc4c(c3)CCCS4)c2)[C@H](O)[C@@H](O)[C@@H]1O [Example E061, (2S,3R,4R,5S,6R)-2-(4-Chloro-3-(thiochroman-6-ylmethyl)phenyl)-6-(hydroxymethyl)-tetrahydro-2H-pyran-3,4,5-triol]",3.35
2,"CC1(C)COc2cc(Cc3cc([C@@H]4O[C@H](CO)[C@@H](O)[C@H](O)[C@H]4O)ccc3Cl)ccc2O1 [Example E064, (2S,3R,4R,5S,6R)-2-(4-Chloro-3-((2,2-dimethyl-2,3-dihydrobenzo[b][1,4]dioxin-6-yl)methyl)phenyl)-6-(hydroxymethyl)-tetrahydro-2H-pyran-3,4,5-triol]",5.78
3,"CC1Cc2cc(Cc3cc([C@@H]4O[C@H](CO)[C@@H](O)[C@H](O)[C@H]4O)ccc3Cl)ccc2O1 (stereo partly drawn) [Example E065, (2S,3R,4R,5S,6R)-2-(4-Chloro-3-((2-methyl-2,3-dihydrobenzofuran-5-yl)methyl)phenyl)-6-(hydroxymethyl)-tetrahydro-2H-pyran-3,4,5-triol]",7.62
4,"OC[C@H]1O[C@@H](c2ccc(Cl)c(Cc3ccc4c(c3)SCO4)c2)[C@H](O)[C@@H](O)[C@@H]1O [Example E066, (2S,3R,4R,5S,6R)-2-(3-(Benzo[d][1,3]oxathiol-5-ylmethyl)-4-chlorophenyl)-6-(hydroxymethyl)-tetrahydro-2H-pyran-3,4,5-triol]",3.67
5,"OC[C@H]1O[C@@H](c2ccc(Cl)c(Cc3ccc4c(c3)COCO4)c2)[C@H](O)[C@@H](O)[C@@H]1O [Example E068, (2S,3R,4R,5S,6R)-2-(3-((4H-Benzo[d][1,3]dioxin-6-yl)methyl)-4-chlorophenyl)-6-(hydroxymethyl)-tetrahydro-2H-pyran-3,4,5-triol]",9.47
6,OC[C@H]1O[C@@H](c2ccc(Cl)c(Cc3ccc4c(c3)OC=CO4)c2)[C@H](O)[C@@H](O)[C@@H]1O [Example E069],0.788
7,"OC[C@H]1O[C@@H](c2ccc(Cl)c(Cc3ccc4c(c3)SCCO4)c2)[C@H](O)[C@@H](O)[C@@H]1O [Example E072, (2S,3R,4R,5S,6R)-2-(4-Chloro-3-((2,3-dihydrobenzo[b][1,4]oxathiin-6-yl)methyl)phenyl)-6-(hydroxymethyl)-tetrahydro-2H-pyran-3,4,5-triol]",1.75
8,"O=S1(=O)CCOc2ccc(Cc3cc([C@@H]4O[C@H](CO)[C@@H](O)[C@H](O)[C@H]4O)ccc3Cl)cc21 [Example E073, (2S,3R,4R,5S,6R)-2-(4-Chloro-3-((1,1-dioxo-2,3-dihydrobenzo[b][1,4]oxathiin-6-yl)methyl)phenyl)-6-(hydroxymethyl)-tetrahydro-2H-pyran-3,4,5-triol]",78.5
9,CCc1ccc(Cc2cc([C@@H]3O[C@H](CO)[C@@H](O)[C@H](O)[C@H]3O)cc(-c3ccccc3)c2C)cc1 [Example E076],9.63
10,CCOc1ccc(Cc2cc([C@@H]3O[C@H](CO)[C@@H](O)[C@H](O)[C@H]3O)cc(-c3ccccc3)c2C)cc1 [Example E077],3.84
11,CCOc1ccc(Cc2cc([C@@H]3O[C@H](CO)[C@@H](O)[C@H](O)[C@H]3O)cc(-c3ccc(F)cc3)c2C)cc1 [Example E078],93.3
12,"Cc1c(Cc2ccc3c(c2)OCCO3)cc([C@@H]2O[C@H](CO)[C@@H](O)[C@H](O)[C@H]2O)cc1-c1ccccc1 [Example E084, (2S,3R,4R,5S,6R)-2-(5-((2,3-Dihydrobenzo[b][1,4]dioxin-6-yl)methyl)-6-methylbiphenyl-3-yl)-6-(hydroxymethyl)-tetrahydro-2H-pyran-3,4,5-triol]",5.3
13,"Cc1c(Br)cc([C@@H]2O[C@H](CO)[C@@H](O)[C@H](O)[C@H]2O)cc1Cc1ccc2c(c1)OCCO2 [Example E085, (2S,3R,4R,5S,6R)-2-(3-Bromo-5-((2,3-dihydrobenzo[b][1,4]dioxin-6-yl)methyl)-4-methylphenyl)-6-(hydroxymethyl)-tetrahydro-2H-pyran-3,4,5-triol]",1.82
14,"CCOc1ccc(Cc2cc([C@@H]3O[C@H](CO)[C@@H](O)[C@H](O)[C@H]3O)cc(-c3ccccc3Cl)c2C)cc1 [Example E086, (2S,3R,4R,5S,6R)-2-(6′-Chloro-5-(4-ethoxybenzyl)-6-methylbiphenyl-3-yl)-6-(hydroxymethyl)-tetrahydro-2H-pyran-3,4,5-triol]",15.4
15,"CCOc1ccc(Cc2cc([C@@H]3O[C@H](CO)[C@@H](O)[C@H](O)[C@H]3O)cc(-c3cccc(C#N)c3)c2C)cc1 [Example E087, 3′-(4-Ethoxybenzyl)-2′-methyl-5′-((2S,3R,4R,5S,6R)-3,4,5-trihydroxy-6-(hydroxymethyl)-tetrahydro-2H-pyran-2-yl)biphenyl-3-carbonitrile]",38.9
16,"CCOc1ccc(Cc2cc([C@@H]3O[C@H](CO)[C@@H](O)[C@H](O)[C@H]3O)cc(-c3ccsc3)c2C)cc1 [Example E089, (2S,3R,4R,5S,6R)-2-(3-(4-Ethoxybenzyl)-4-methyl-5-(thiophen-3-yl)phenyl)-6-(hydroxymethyl)-tetrahydro-2H-pyran-3,4,5-triol]",2.55
17,"CCOc1ccc(Cc2cc([C@@H]3O[C@H](CO)[C@@H](O)[C@H](O)[C@H]3O)cc(-c3cccs3)c2C)cc1 [Example E090, (2S,3R,4R,5S,6R)-2-(3-(4-Ethoxybenzyl)-4-methyl-5-(thiophen-2-yl)phenyl)-6-(hydroxymethyl)-tetrahydro-2H-pyran-3,4,5-triol]",3.73
18,"CS[C@H]1O[C@@H](c2ccc(Cl)c(Cc3ccc4c(c3)OCCO4)c2)[C@H](O)[C@@H](O)[C@@H]1O [Example E091, (2S,3R,4R,5S,6R)-2-(4-Chloro-3-((2,3-dihydrobenzo[b][1,4]dioxin-6-yl)methyl)phenyl)-6-(methylthio)tetrahydro-2H-pyran-3,4,5-triol]",0.629
19,"CO[C@H]1O[C@@H](c2ccc(Cl)c(Cc3ccc4c(c3)OCCO4)c2)[C@H](O)[C@@H](O)[C@@H]1O [Example E092, (2S,3R,4R,5S,6S)-2-(4-Chloro-3-((2,3-dihydrobenzo[b][1,4]dioxin-6-yl)methyl)phenyl)-6-methoxy-tetrahydro-2H-pyran-3,4,5-triol]",8.65
20,"COC1O[C@@H](c2ccc(Cl)c(Cc3ccc4c(c3)OCCO4)c2)[C@H](O)[C@@H](O)[C@@H]1O (stereo partly drawn) [Example E093, (2S,3R,4R,5S)-2-(4-Chloro-3-((2,3-dihydrobenzo[b][1,4]dioxin-6-yl)methyl)phenyl)-6-methoxytetrahydro-2H-pyran-3,4,5-triol]",16.8
21,"CO[C@@H]1O[C@@H](c2ccc(Cl)c(Cc3ccc4c(c3)OCCO4)c2)[C@H](O)[C@@H](O)[C@@H]1O [Example E094, (2S,3R,4R,5S,6R)-2-(4-Chloro-3-((2,3-dihydrobenzo[b][1,4]dioxin-6-yl)methyl)phenyl)-6-methoxy-tetrahydro-2H-pyran-3,4,5-triol]",53.9
22,"COc1cc(Cl)c(Cc2ccc3c(c2)OCCO3)cc1[C@@H]1O[C@H](SC)[C@@H](O)[C@H](O)[C@H]1O [Example E095, (2S,3R,4R,5S,6R)-2-(4-Chloro-5-((2,3-dihydrobenzo[b][1,4]dioxin-6-yl)methyl)-2-methoxyphenyl)-6-(methylthio)-tetrahydro-2H-pyran-3,4,5-triol]",0.628
23,"COc1cc(Cl)c(Cc2ccc3c(c2)OCCO3)cc1[C@@H]1O[C@H](OC)[C@@H](O)[C@H](O)[C@H]1O [Example E096, (2S,3R,4R,5S,6S)-2-(4-Chloro-5-((2,3-dihydrobenzo[b][1,4]dioxin-6-yl)methyl)-2-methoxyphenyl)-6-methoxy-tetrahydro-2H-pyran-3,4,5-triol]",18.5
24,"COc1ccc(Cc2cc([C@@H]3O[C@H](OC)[C@@H](O)[C@H](O)[C@H]3O)c3c(c2Br)CCC3)cc1 [Example E097, (2S,3R,4R,5S,6S)-2-(7-Bromo-6-(4-methoxybenzyl)-2,3-dihydro-1H-inden-4-yl)-6-methoxy-tetrahydro-2H-pyran-3,4,5-triol]",3.83
25,"CS[C@H]1O[C@@H](c2cc(Cc3ccc4c(c3)OCCO4)c(Cl)cc2O)[C@H](O)[C@@H](O)[C@@H]1O [Example E098, (2S,3R,4R,5S,6R)-2-(4-Chloro-5-((2,3-dihydrobenzo[b][1,4]dioxin-6-yl)methyl)-2-hydroxyphenyl)-6-(methylthio)-tetrahydro-2H-pyran-3,4,5-triol]",0.454
26,"CCc1ccc(C2OCc3ccc([C@@H]4O[C@H](CO)[C@@H](O)[C@H](O)[C@H]4O)cc32)cc1 (stereo partly drawn) [Example E099, (2S,3R,4R,5S,6R)-2-(3-(4-Ethylphenyl)-1,3-dihydroisobenzofuran-5-yl)-6-(hydroxymethyl)-tetrahydro-2H-pyran-3,4,5-triol]",56.2
27,"CSc1ccc(C2OCc3ccc([C@@H]4O[C@H](CO)[C@@H](O)[C@H](O)[C@H]4O)cc32)cc1 (stereo partly drawn) [Example E102, (2R,3S,4R,5R,6S)-2-(Hydroxymethyl)-6-(3-(4-(methylthio)phenyl)-1,3-dihydroisobenzofuran-5-yl)-tetrahydro-2H-pyran-3,4,5-triol]",75.7
